Results taken from patent US12216125B2, “Method and kit for isotope-labelling of a glutathione-containing biological sample for mass spectrometry” (TECHNISCHE UNIVERSITÄT WIEN, priority 2018, dated 2025).

System: A549 lung carcinoma cells
Experiment: Oxidative stress induction in A549 cells, GSH/GSSG measured by LC-MS/MS
Type: cell-based, human
Settings: 100 μmol/L H2O2 for 15 min
Method: Cell culture: A549 human lung carcinoma cells were obtained from CLS Cell Lines Service, Eppelheim, Germany, and were cultured in RPMI medium supplemented with 10% fetal bovine serum and 2 mmol/L glutamine in a 5% CO2, 37° C. incubator. For H2O2 treatment, cells were seeded in 12-well plates (300000 cells/well) and after a day in culture treated with 500 μl of control (Ca2+, Mg2+-PBS) or 100 μmol/L H2O2 in Ca2+, Mg2+-PBS for 15 min followed by two PBS washing steps and the NEM (2.5 mmol/L) incubation step. The detailed stabilisation workflow is illustrated in FIG. 1 and example 2.
Method overview: The method was tested and fully optimized for three different sample types: cells, blood and tissue. In clinical measurements available sample amount is often a limiting factor. The high sensitivity of the presented method enables analysis of scarce samples as minimal sample amounts are required. Typically, 5 μL of blood, 3-5 mg of tissue sample or 300.000 cells were used as starting material. […] All three analytes GSH-NEM, GSH-d5-NEM and ^13C, ^15N-GSH-d5-NEM (IS) were then simultaneously measured by LC-MS/MS using an MRM-based approach (FIG. 1, step 4), see also example 4.
Chromatography was carried out on a Dionex UltiMate 3000 system equipped with a Zorbax SB-C18 column (50 mm×4.6 mm, 1.8 μm, Agilent, USA). […] The sum of areas under both peaks was used for integration and quantification. […]

In the case of OO [H2O2], the GSH/GSSG ratio (GSSG measured as GSH-d5-NEM) is reported as “drastically reduced” and the “intracellular GSH values” (vs control PBS) is reported as “depleted”.
